Test results from patent US12655387B2, “Hair follicle primordia and method for producing same” (National University Corporation Yokohama National University, priority 2019, dated 2026).

System: epithelial cells and mesenchymal cells (hair follicle germ)
Assay: co-culture of epithelial cells and mesenchymal cells in culture solution with dispersed additive; formation of hair shaft-like structure in hair follicle germ
Format: cell-based, C57BL/6 mouse
Details: for formation of hair follicle germ having a hair shaft-like structure: up to day 8 of culture
Method: A dorsal skin tissue was collected from a C57BL/6 mouse embryo at embryonic day 18, and was subjected to dispase treatment by a partially modified version of a method reported by […]. (Koh-ei Toyoshima et al. Nature Communications, 3, 784, 2012) at 4° C. under the shaking condition of 30 rpm for 1 hour to separate the epithelial layer and mesenchymal layer of the skin tissue. After that, the epithelial layer was treated with 100 U/mL collagenase for 1 hour and 20 minutes and further treated with trypsin for 10 minutes to isolate epithelial cells. In addition, the mesenchymal layer was treated with 100 U/mL collagenase for 1 hour and 20 minutes to isolate mesenchymal cells.
In example 1-1, the epithelial cells and the mesenchymal cells were co-cultured using a culture solution containing laminin, entactin, and type IV collagen. First, DMEM/F12 medium (Advanced Dulbecco's Modified Eagle Medi um/Ham's F-12, GIBCO® containing 1% GLUTAMAX® Supplement (L-glutamine supplement in […], GIBCO® and 0.2% NORMOCIN® (antimicrobial agent, INVIVOGEN®) was prepared as the culture solution.
Then, the epithelial cells and the mesenchymal cells in such amounts as to achieve a cell density of 5×10^3 cells/mL each (such amounts as to achieve a total cell density of 1×10^4 cells/mL) were suspended in the culture solution, and MATRIGEL® (MATRIGEL® Basement Membrane Matrix, CORNING®) in such an amount as to achieve a concentration of 1 v/v % was further added to prepare a cell suspension.
The Matrigel product used contained 10.6 mg/mL (protein amount measured by the Lowry method) of a soluble basement membrane matrix extracted from an Engelbreth-Holm-Swarm (EHS) mouse tumor, and a compositional ratio in the basement membrane matrix was as follows: 56% of laminin, 8% of entactin, and 31% of type IV collagen.
100 μL of the cell suspension was placed in each well of a 96-well plate (Prime surface (trademark), Sumitomo Bakelite Co., Ltd.) to inoculate the epithelial cells and the mesenchymal cells. […]

laminin
formation of hair shaft-like structure in hair follicle germ (1 v/v % of product at inoculation, day 8 of culture (examples 5-1, 5-2, 5-3, 6)): had no hair shaft-like structure formed therein
formation of hair follicle germ having a hair shaft-like structure (example C1-1: 5 v/v % of product (39 to 41 μg/mL laminin)): a hair follicle germ having a hair shaft-like structure was not formed
formation of hair follicle germ having a hair shaft-like structure (example C1-2: 10 v/v % of product (78 to 82 μg/mL laminin)): a hair follicle germ having a hair shaft-like structure was not formed
